Assay results from ChEMBL document CHEMBL6121016, “Design, Synthesis, and Biological Evaluation of 1,3,4-Thiadiazole Derivatives as Novel Potent Peptide Deformylase Inhibitors for Combating Drug-Resistant Gram-Positive and -Negative Bacteria” (J Med Chem, 2025).
Values after ≈ are worked out from the molar mass of the structure shown.

What was measured:
Type in all cases: functional
Conditions in all cases: time 16-18 hrs
[1] = system: Staphylococcus epidermidis; test: Antibacterial activity against Staphylococcus epidermidis after 16 to 18 hrs by broth microdilution method
Acinetobacter baumannii [2] = test: Antibacterial activity against Acinetobacter baumannii Bio 34235 after 16 to 18 hrs by broth microdilution method
Staphylococcus aureus [3] = test: Antibacterial activity against methicillin-susceptible Staphylococcus aureus ATCC 29213 after 16 to 18 hrs by broth microdilution method
Acinetobacter baumannii [4] = test: Antibacterial activity against drug-resistant Acinetobacter baumannii Bio 53272 after 16 to 18 hrs by broth microdilution method
Staphylococcus aureus [5] = test: Antibacterial activity against methicillin-resistant Staphylococcus aureus Bio-090770 after 16 to 18 hrs by broth microdilution method
Escherichia coli = test: Antibacterial activity against Escherichia coli ATCC 25922 after 16 to 18 hrs by broth microdilution method
Staphylococcus aureus [6] = test: Antibacterial activity against methicillin-susceptible Staphylococcus aureus ATCC 13709 after 16 to 18 hrs by broth microdilution method
Staphylococcus aureus [7] = test: Antibacterial activity against methicillin-resistant Staphylococcus aureus ATCC 33591 after 16 to 18 hrs by broth microdilution method
Staphylococcus aureus [8] = test: Antibacterial activity against methicillin-resistant Staphylococcus aureus ATCC 43300 after 16 to 18 hrs by broth microdilution method
Staphylococcus aureus [9] = test: Antibacterial activity against methicillin-susceptible Staphylococcus aureus ATCC 25923 after 16 to 18 hrs by broth microdilution method
Klebsiella pneumoniae = test: Antibacterial activity against Klebsiella pneumoniae CICC 21611 after 16 to 18 hrs by broth microdilution method

Compound	MIC [1]	MIC (Acinetobacter baumannii [2])	MIC (Staphylococcus aureus [3])	MIC (Acinetobacter baumannii [4])	MIC (Staphylococcus aureus [5])	MIC (Escherichia coli)	MIC (Staphylococcus aureus [6])	MIC (Staphylococcus aureus [7])	MIC (Staphylococcus aureus [8])	MIC (Staphylococcus aureus [9])	MIC (Klebsiella pneumoniae)
CCCC[C@H](CN(O)C=O)C(=O)N1CCC[C@H]1c1nnc(-c2ccc[nH]2)s1	0.5 µg/mL (≈ 1.28 µM)	> 16 µg/mL	1 µg/mL (≈ 2.55 µM)	> 16 µg/mL	4 µg/mL (≈ 10.2 µM)	> 16 µg/mL	1 µg/mL (≈ 2.55 µM)	0.25 µg/mL (≈ 0.639 µM)	0.5 µg/mL (≈ 1.28 µM)	1 µg/mL (≈ 2.55 µM)	> 16 µg/mL
CCCC[C@H](CN(O)C=O)C(=O)N1CCC[C@H]1c1nnc(-c2ccc(OC)cc2)s1	1 µg/mL (≈ 2.31 µM)	16 µg/mL (≈ 37 µM)	0.5 µg/mL (≈ 1.16 µM)	> 8 µg/mL	1 µg/mL (≈ 2.31 µM)	> 16 µg/mL	0.5 µg/mL (≈ 1.16 µM)	0.25 µg/mL (≈ 0.578 µM)	0.25 µg/mL (≈ 0.578 µM)	0.5 µg/mL (≈ 1.16 µM)	> 16 µg/mL
CCCC[C@H](CN(O)C=O)C(=O)N1CCC[C@H]1c1nnc(-c2ccc3[nH]ccc3c2)s1	16 µg/mL (≈ 36.2 µM)	> 16 µg/mL	4 µg/mL (≈ 9.06 µM)	> 16 µg/mL	8 µg/mL (≈ 18.1 µM)	> 16 µg/mL	4 µg/mL (≈ 9.06 µM)	4 µg/mL (≈ 9.06 µM)	4 µg/mL (≈ 9.06 µM)	8 µg/mL (≈ 18.1 µM)	> 16 µg/mL
CCCC[C@H](CN(O)C=O)C(=O)N1CCC[C@H]1c1nnc(-c2ccnc(C(F)(F)F)c2)s1	1 µg/mL (≈ 2.12 µM)	64 µg/mL (≈ 136 µM)	0.5 µg/mL (≈ 1.06 µM)	16 µg/mL (≈ 33.9 µM)	1 µg/mL (≈ 2.12 µM)	128 µg/mL (≈ 271 µM)	0.5 µg/mL (≈ 1.06 µM)	0.25 µg/mL (≈ 0.53 µM)	0.25 µg/mL (≈ 0.53 µM)	0.5 µg/mL (≈ 1.06 µM)	64 µg/mL (≈ 136 µM)
CCCC[C@H](CN(O)C=O)C(=O)N1CCC[C@H]1c1nnc(-c2ccc(C#N)cc2F)s1	2 µg/mL (≈ 4.49 µM)	> 16 µg/mL	0.25 µg/mL (≈ 0.561 µM)	8 µg/mL (≈ 18 µM)	0.5 µg/mL (≈ 1.12 µM)	8 µg/mL (≈ 18 µM)	0.125 µg/mL (≈ 0.281 µM)	0.125 µg/mL (≈ 0.281 µM)	0.125 µg/mL (≈ 0.281 µM)	0.125 µg/mL (≈ 0.281 µM)	> 16 µg/mL
CCCC[C@H](CN(O)C=O)C(=O)N1CCC[C@H]1c1nnc(-c2ccsc2)s1	2 µg/mL (≈ 4.9 µM)	32 µg/mL (≈ 78.3 µM)	1 µg/mL (≈ 2.45 µM)	16 µg/mL (≈ 39.2 µM)	4 µg/mL (≈ 9.79 µM)	64 µg/mL (≈ 157 µM)	4 µg/mL (≈ 9.79 µM)	0.25 µg/mL (≈ 0.612 µM)	0.25 µg/mL (≈ 0.612 µM)	1 µg/mL (≈ 2.45 µM)	32 µg/mL (≈ 78.3 µM)
CCCC[C@H](CN(O)C=O)C(=O)N1CCC[C@H]1c1nnc(-c2ccccn2)s1	0.5 µg/mL (≈ 1.24 µM)	32 µg/mL (≈ 79.3 µM)	1 µg/mL (≈ 2.48 µM)	16 µg/mL (≈ 39.7 µM)	1 µg/mL (≈ 2.48 µM)	128 µg/mL (≈ 317 µM)	0.5 µg/mL (≈ 1.24 µM)	0.5 µg/mL (≈ 1.24 µM)	0.5 µg/mL (≈ 1.24 µM)	0.5 µg/mL (≈ 1.24 µM)	32 µg/mL (≈ 79.3 µM)
CCCC[C@H](CN(O)C=O)C(=O)N1CCC[C@H]1c1nnc(-c2ccc(Br)s2)s1	1 µg/mL (≈ 2.05 µM)	32 µg/mL (≈ 65.6 µM)	2 µg/mL (≈ 4.1 µM)	16 µg/mL (≈ 32.8 µM)	2 µg/mL (≈ 4.1 µM)	64 µg/mL (≈ 131 µM)	2 µg/mL (≈ 4.1 µM)	0.25 µg/mL (≈ 0.513 µM)	0.25 µg/mL (≈ 0.513 µM)	1 µg/mL (≈ 2.05 µM)	32 µg/mL (≈ 65.6 µM)
CCCC[C@H](CN(O)C=O)C(=O)N1CCC[C@H]1c1nnc(-c2ccccc2F)s1	2 µg/mL (≈ 4.76 µM)	16 µg/mL (≈ 38 µM)	1 µg/mL (≈ 2.38 µM)	8 µg/mL (≈ 19 µM)	1 µg/mL (≈ 2.38 µM)	16 µg/mL (≈ 38 µM)	0.5 µg/mL (≈ 1.19 µM)	0.5 µg/mL (≈ 1.19 µM)	0.5 µg/mL (≈ 1.19 µM)	0.5 µg/mL (≈ 1.19 µM)	> 16 µg/mL
CCCC[C@H](CN(O)C=O)C(=O)N1CCC[C@H]1c1nnc(Cc2cccs2)s1	2 µg/mL (≈ 4.73 µM)	16 µg/mL (≈ 37.9 µM)	2 µg/mL (≈ 4.73 µM)	16 µg/mL (≈ 37.9 µM)	2 µg/mL (≈ 4.73 µM)	> 16 µg/mL	2 µg/mL (≈ 4.73 µM)	0.5 µg/mL (≈ 1.18 µM)	1 µg/mL (≈ 2.37 µM)	2 µg/mL (≈ 4.73 µM)	> 16 µg/mL
CCCC[C@H](CN(O)C=O)C(=O)N1CCC[C@H]1c1nnc(-c2ccc(F)cc2[N+](=O)[O-])s1	4 µg/mL (≈ 8.59 µM)	> 16 µg/mL	2 µg/mL (≈ 4.3 µM)	> 16 µg/mL	4 µg/mL (≈ 8.59 µM)	> 16 µg/mL	2 µg/mL (≈ 4.3 µM)	1 µg/mL (≈ 2.15 µM)	2 µg/mL (≈ 4.3 µM)	4 µg/mL (≈ 8.59 µM)	> 16 µg/mL
CCCC[C@H](CN(O)C=O)C(=O)N1CCC[C@H]1c1nnc(C2CCCCC2)s1	4 µg/mL (≈ 9.79 µM)	> 16 µg/mL	2 µg/mL (≈ 4.9 µM)	> 16 µg/mL	2 µg/mL (≈ 4.9 µM)	> 16 µg/mL	2 µg/mL (≈ 4.9 µM)	0.5 µg/mL (≈ 1.22 µM)	1 µg/mL (≈ 2.45 µM)	2 µg/mL (≈ 4.9 µM)	> 16 µg/mL
CCCC[C@H](CN(O)C=O)C(=O)N1CCC[C@H]1c1nnc(-c2ccc(C(F)(F)F)cc2F)s1	4 µg/mL (≈ 8.19 µM)	> 16 µg/mL	2 µg/mL (≈ 4.09 µM)	> 16 µg/mL	1 µg/mL (≈ 2.05 µM)	> 16 µg/mL	2 µg/mL (≈ 4.09 µM)	0.25 µg/mL (≈ 0.512 µM)	1 µg/mL (≈ 2.05 µM)	2 µg/mL (≈ 4.09 µM)	> 16 µg/mL
CCCC[C@H](CN(O)C=O)C(=O)N1CCC[C@H]1c1nnc(C2CCOC2)s1 (some centres undefined)	4 µg/mL (≈ 10.1 µM)	> 16 µg/mL	4 µg/mL (≈ 10.1 µM)	> 16 µg/mL	4 µg/mL (≈ 10.1 µM)	> 16 µg/mL	4 µg/mL (≈ 10.1 µM)	1 µg/mL (≈ 2.52 µM)	1 µg/mL (≈ 2.52 µM)	4 µg/mL (≈ 10.1 µM)	> 16 µg/mL
CCCC[C@H](CN(O)C=O)C(=O)N1CCC[C@H]1c1nnc(C2CC2)s1	0.5 µg/mL (≈ 1.36 µM)	> 16 µg/mL	4 µg/mL (≈ 10.9 µM)	> 16 µg/mL	4 µg/mL (≈ 10.9 µM)	> 16 µg/mL	2 µg/mL (≈ 5.46 µM)	1 µg/mL (≈ 2.73 µM)	1 µg/mL (≈ 2.73 µM)	2 µg/mL (≈ 5.46 µM)	> 16 µg/mL
CCCCc1ccc(-c2nnc([C@@H]3CCCN3C(=O)[C@H](CCCC)CN(O)C=O)s2)cc1	8 µg/mL (≈ 17.4 µM)	> 16 µg/mL	4 µg/mL (≈ 8.72 µM)	> 16 µg/mL	4 µg/mL (≈ 8.72 µM)	> 16 µg/mL	4 µg/mL (≈ 8.72 µM)	2 µg/mL (≈ 4.36 µM)	2 µg/mL (≈ 4.36 µM)	4 µg/mL (≈ 8.72 µM)	> 16 µg/mL
CCCC[C@H](CN(O)C=O)C(=O)N1CCC[C@H]1c1nnc(-c2ccc([N+](=O)[O-])cc2)s1	1 µg/mL (≈ 2.23 µM)	> 16 µg/mL	0.5 µg/mL (≈ 1.12 µM)	8 µg/mL (≈ 17.9 µM)	1 µg/mL (≈ 2.23 µM)	> 16 µg/mL	0.5 µg/mL (≈ 1.12 µM)	0.25 µg/mL (≈ 0.559 µM)	0.25 µg/mL (≈ 0.559 µM)	0.5 µg/mL (≈ 1.12 µM)	> 16 µg/mL
CCCC[C@H](CN(O)C=O)C(=O)N1CCC[C@H]1c1nnc(-c2ccccc2OC)s1	2 µg/mL (≈ 4.62 µM)	16 µg/mL (≈ 37 µM)	0.5 µg/mL (≈ 1.16 µM)	16 µg/mL (≈ 37 µM)	2 µg/mL (≈ 4.62 µM)	16 µg/mL (≈ 37 µM)	1 µg/mL (≈ 2.31 µM)	2 µg/mL (≈ 4.62 µM)	0.5 µg/mL (≈ 1.16 µM)	1 µg/mL (≈ 2.31 µM)	> 16 µg/mL
CCCC[C@H](CN(O)C=O)C(=O)N1CCC[C@H]1c1nnc(-c2ncccc2F)s1	1 µg/mL (≈ 2.37 µM)	16 µg/mL (≈ 38 µM)	1 µg/mL (≈ 2.37 µM)	16 µg/mL (≈ 38 µM)	2 µg/mL (≈ 4.74 µM)	> 16 µg/mL	1 µg/mL (≈ 2.37 µM)	0.25 µg/mL (≈ 0.593 µM)	0.25 µg/mL (≈ 0.593 µM)	1 µg/mL (≈ 2.37 µM)	> 16 µg/mL
